Reference: patent US5916887A, “4-substituted-3-(2-amino-2-cycloalkyl methyl)-acetamido azetidin-2-one derivatives as cysteine proteinase regulators” (National Research Council of Canada, priority 1997, dated 1999)

Experiments:
cathepsin L [1] = target: T1, cathepsin L (Rattus norvegicus, UniProt P07154); test: In vitro assay procedure for cathepsin L (recombinant rat cathepsin L, N-CBZ-Phe-Arg-AMC substrate); type: biochemical; details: pH 5.0, 10 min incubation at room temperature
Experimental: In vitro assay procedure for cathepsin L
To 170 μl of enzyme-buffer mixture (enzyme: recombinant rat cathepsin L, diluted to give approximate 15 Fluorescence units/min, buffer: 58.8 mM sodium citrate, 1.18 mM EDTA, 235 mM sodium chloride, 5 mM DTT, pH 5.0) 10 μL of inhibitor (dissolved in DMSO) is added. After 10 min of incubation at room temperature, 20 μl of 1 mM substrate (N-CBZ-Phe-Arg-AMC, dissolved in DMSO) is added to initiate reaction. Reading is followed up for 10 min on a Fluoroskan fluorescence reader (excitation at 380 nm emission at 460 nm).
(§1) A plot of percentage of inhibition vs inhibitor concentration is obtained, and IC50 is determined using a linear regression calculation (concentration of inhibitor which will give 50% inhibition).
Target sequence in this assay (P07154 114-334): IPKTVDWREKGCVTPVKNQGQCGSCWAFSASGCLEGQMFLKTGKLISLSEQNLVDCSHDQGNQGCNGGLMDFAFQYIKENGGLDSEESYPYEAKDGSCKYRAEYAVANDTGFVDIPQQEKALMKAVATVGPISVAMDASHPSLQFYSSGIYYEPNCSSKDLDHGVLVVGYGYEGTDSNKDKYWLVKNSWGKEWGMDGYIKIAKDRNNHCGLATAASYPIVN

cathepsin B [2] = target: T2, cathepsin B (Rattus norvegicus, UniProt P00787); test: In vitro assay procedure for cathepsin B (recombinant rat cathepsin B, N-CBZ-Phe-Arg-AMC substrate); type: biochemical; details: pH 5.1, 10 min incubation at room temperature
Experimental: In vitro assay procedure for cathepsin B
The compounds of formula I are tested for inhibition of cathepsin B using the known method (A. J. Barret et al., Biochem. J. 1982, 201, 189-198). To 170 μl of an enzyme-buffer mixture (enzyme: recombinant rat cathepsin B, diluted to give approximate 10 Fluorescence units/min, buffer: 56 mM sodium acetate, 1.124 mM EDTA, 10 mM DTT, pH 5.1) 10 μL of inhibitor (dissolved in DMSO) is added. After 10 min of incubation at room temperature, a 20 μl of 5 mM substrate (N-CBZ-Phe-Arg-AMC, dissolved in DMSO) is added to initiate reaction. Reading is followed up for 10 min on a Fluoroskan fluorescence reader (excitation at 380 nm, emission at 460 nm).
as §1
Target sequence in this assay (P00787 80-339): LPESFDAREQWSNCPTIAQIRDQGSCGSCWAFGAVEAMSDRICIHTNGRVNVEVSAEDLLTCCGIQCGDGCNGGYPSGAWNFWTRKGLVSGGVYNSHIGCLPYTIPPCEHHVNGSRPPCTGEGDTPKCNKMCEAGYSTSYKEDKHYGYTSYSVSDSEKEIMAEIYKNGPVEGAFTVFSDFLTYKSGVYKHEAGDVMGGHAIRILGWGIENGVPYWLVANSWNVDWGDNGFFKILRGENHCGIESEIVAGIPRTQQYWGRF

cathepsin B [3] = test: In vivo inhibition test for cathepsin B, mouse liver ML fraction; details: 50 mg/kg intraperitoneal, 6 hours, mean for 3 animals
Experimental: (§2) In vivo inhibition test for cathepsin B and L
(§3) The in vivo inhibition of cathepsin B and L are tested according to the known method (T. Towatari et al, FEBS, 1991, 280, 311-315). Inhibitor is injected intraperitoneally into rodents as a solution in saline containing DMSO or DMSO:PEG400 (1:1) at the doses indicated in Table 2. The rodents are killed after 6 hours, and the liver is perfused with ice-cold saline, and chilled on ice. Sample of 4 g of liver are homogenized in 7 volumes of 0.25 M sucrose. The homogenate is centrifuged at 800 g for 15 min. and the supernatant is centrifuged at 12,000 g for 30 min. The precipitate (crude mitochondrial-lysosomal fraction; ML fraction) is suspended in 2 ml of 0.05 M acetate buffer, pH 5.0, and then freeze-thawed for measurements of cathepsin B and L.

cathepsin L [4] = test: In vivo inhibition test for cathepsin L, mouse liver ML fraction; details: 50 mg/kg intraperitoneal, 6 hours, mean for 3 animals
Experimental: as §2, §3

cathepsin L [5] = target: T1, cathepsin L; test: In vivo inhibition test for cathepsin L, rat liver ML fraction; set-up: The precipitate (crude mitochondrial-lysosomal fraction; from tissue; host or cells: liver, crude mitochondrial-lysosomal (ML) fraction of dosed rodents; details: 6 hours, mean for 3 animals
Experimental: as §2, §3
Target sequence in this assay (P07154 114-288 limits assumed): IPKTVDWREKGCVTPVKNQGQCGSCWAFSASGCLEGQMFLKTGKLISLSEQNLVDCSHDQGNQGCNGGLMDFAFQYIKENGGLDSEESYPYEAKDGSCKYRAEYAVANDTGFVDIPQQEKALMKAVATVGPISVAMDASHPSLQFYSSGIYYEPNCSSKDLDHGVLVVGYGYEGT
Target sequence in this assay (P07154 291-334 limits assumed): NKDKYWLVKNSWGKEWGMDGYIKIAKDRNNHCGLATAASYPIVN

cathepsin B [6] = target: T2, cathepsin B; test: In vivo inhibition test for cathepsin B, rat liver ML fraction; set-up: The precipitate (crude mitochondrial-lysosomal fraction; from tissue; host or cells: liver, crude mitochondrial-lysosomal (ML) fraction of dosed rodents; details: 6 hours, mean for 3 animals
Experimental: as §2, §3
Target sequence in this assay (P00787 80-126 limits assumed): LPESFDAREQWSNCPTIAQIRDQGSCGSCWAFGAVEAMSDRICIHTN
Target sequence in this assay (P00787 129-333 limits assumed): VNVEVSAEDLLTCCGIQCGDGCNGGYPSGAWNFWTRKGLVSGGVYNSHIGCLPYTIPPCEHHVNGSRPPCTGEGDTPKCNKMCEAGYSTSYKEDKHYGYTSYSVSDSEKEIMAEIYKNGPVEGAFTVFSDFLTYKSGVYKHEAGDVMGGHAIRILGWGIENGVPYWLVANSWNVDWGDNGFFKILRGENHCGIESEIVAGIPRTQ

IC50 (cathepsin L [1]) [nM]	IC50 (cathepsin B [2]) [nM]	Structure (SMILES)	other results
1820	34000	N[C@@H](Cc1ccc(O[C@@H]2NC(=O)[C@H]2NC(=O)[C@H](CC2CCCCC2)NC(=O)CCc2ccccc2)cc1)C(=O)O [Example 3, (3S,4S)-3-{2S-2-(3-phenylpropionoyl)amino-2-cyclohexylmethyl-acetamido}-4-{4-(2S-2-amino-2-carboxy-ethyl)-phenoxy}-azetidin-2-one]	Inhibition Cathepsin B (cathepsin B [3]): 65%; Inhibition Cathepsin L (cathepsin L [4]): 55%
1800	9200	N[C@@H](Cc1ccc(O[C@H]2NC(=O)[C@H]2NC(=O)[C@H](CC2CCCCC2)NC(=O)CCc2ccccc2)cc1)C(=O)O [Example 4, (3S,4R)-3-{2S-2-(3-phenylpropionoyl)amino-2-cyclohexylmethyl-acetamido}-4-{4-(2S-2-amino-2-carboxy-ethyl)-phenoxy}-azetidin-2-one]	
16	10400	O=C(CCc1ccccc1)N[C@@H](CC1CCCCC1)C(=O)N[C@H]1C(=O)NC1Sc1ccccc1 (stereo partly drawn) [Example 5, (3S,4SR)-3-{2S-2-(3-phenylpropionoyl)amino-2-cyclohexylmethyl-acetamido}-4-phenylthio-azetidin-2-one]	
78	29000	O=C(CCc1ccccc1)N[C@@H](CC1CCCCC1)C(=O)N[C@H]1C(=O)NC1S(=O)(=O)c1ccccc1 (stereo partly drawn) [Example 6, (3S,4SR)-3-{2S-2-(3-phenylpropionoyl)amino-2-cyclohexylmethyl-acetamido}-4-phenylsulfonyl-azetidin-2-one]	
83	6900	Cc1cccc(O[C@@H]2NC(=O)[C@H]2NC(=O)[C@H](CC2CCCCC2)NC(=O)OCc2ccccc2)c1 [Example 9A, (3S,4S)-3-(2S-2-benzyloxycarbonylamino-2-cyclohexylmethyl-acetamido)-4-(3-methyl-phenoxy)-azetidin-2-one]	
3	250	Cc1cccc(O[C@H]2NC(=O)[C@H]2NC(=O)[C@H](CC2CCCCC2)NC(=O)OCc2ccccc2)c1 [Example 9B, (3S,4R)-3-(2S-2-benzyloxycarbonylamino-2-cyclohexylmethyl-acetamido)-4-(3-methyl-phenoxy)-azetidin-2-one]	
400	1000	O=C(C=Cc1ccncc1)N[C@@H](CC1CCCCC1)C(=O)N[C@@H]1C(=O)N[C@H]1Oc1ccccc1 [Example 10, (3S,4S)-3-{2S-2-[3-(pyridin-4-yl)propenoyl]amino-2-cyclohexylmethyl-acetamido}-4-phenoxy-azetidin-2-one]	
430	2200	O=C(C=Cc1cccnc1)N[C@@H](CC1CCCCC1)C(=O)N[C@@H]1C(=O)N[C@H]1Oc1ccccc1 [Example 11, (3S,4S)-3-{2S-2-[3-(pyridin-3-yl)propenoyl]amino-2-cyclohexylmethyl-acetamido}-4-phenoxy-azetidin-2-one]	
		N[C@@H](Cc1ccc(O[C@@H]2NC(=O)[C@H]2NC(=O)[C@H](Cc2ccccc2)NC(=O)CCc2ccccc2)cc1)C(=O)O [Ref. Compd.]	Inhibition Cathepsin L (cathepsin L [5]; 30 mg/kg intraperitoneal): 30%; Inhibition Cathepsin L (cathepsin L [5]; 70 mg/kg intraperitoneal): 55%; Inhibition Cathepsin B (cathepsin B [6]; 30 mg/kg intraperitoneal): 37%; Inhibition Cathepsin B (cathepsin B [6]; 70 mg/kg intraperitoneal): 56%

Structure (SMILES)	IC50 (cathepsin L [1]) [nM]	IC50 (cathepsin B [2]) [nM]	other results
CC(=O)O[C@@H]1NC(=O)[C@H]1NC(=O)[C@H](CC1CCCCC1)NC(=O)OCc1ccccc1 [Example 1, (3S,4S)-3-(2S-2-benzyloxycarbonylamino-2-cyclohexylmethyl-acetamido)-4-acetoxy-azetidin-2-one]	780	8710	
CC(=O)O[C@@H]1NC(=O)[C@H]1NC(=O)[C@H](CC1CCCCC1)NC(=O)CCc1ccccc1 [Example 2, (3S,4S)-3-{2S-2-(3-phenylpropionoyl)amino-2-cyclohexylmethyl-acetamido}-4-acetoxy-azetidin-2-one]	2320	11600	
CC(=O)O[C@@H]1NC(=O)[C@H]1NC(=O)[C@H](CC1CCCCC1)NC(=O)NCc1ccccc1 [Example 7, (3S,4S)-3-{2S-2-(benzylaminocarbonyl)amino-2-cyclohexylmethyl-acetamido}-4-acetoxy-azetidin-2-one]	2300	11600	
CC(=O)O[C@@H]1NC(=O)[C@H]1NC(=O)[C@H](CC1CCCCC1)NS(=O)(=O)/C=C/c1ccccc1 [Example 8, (3S,4S)-3-{2S-2-(phenylethenylsulfonyl)amino-2-cyclohexylmethyl-acetamido}-4-acetoxy-azetidin-2-one]	2160	11000	
